The text below walks through data of patent US9409952B2, “Peptide-compound cyclization method” (Chugai Seiyaku Kabushiki Kaisha, priority 2011, dated 2016).

The structures appear in SMILES notation. Positions of bridges follow the written chain, without caps; N, C: chain ends. Non-standard residues stand in square brackets, D forms with d. Residues, ends and D or L forms follow the SMILES beside them. ξ: configuration not given here. *: point of attachment. NMeF = CN[C@@H](Cc1ccccc1)C(=O)O; NMeI = CC[C@H](C)[C@H](NC)C(=O)O; NMeL = CN[C@@H](CC(C)C)C(=O)O; NMeV = CN[C@H](C(=O)O)C(C)C; NMeA = CN[C@@H](C)C(=O)O; Piperidide = C1CCN(*)CC1; ξL = CC(C)CC(N)C(=O)O; Sar = CNCC(=O)O

One data set can be described thus: Metabolic stability in human hepatic microsome. Format: in vitro ADME. Particulars: human, microsomes, CL NADPH(+).
In the case of `CC[C@H](C)[C@@H]1NC(=O)[C@H](Cc2ccccc2)NC(=O)[C@@H]2CCCN2C(=O)[C@H](CC(C)C)N(C)C(=O)[C@H](Cc2ccccc2)NC(=O)[C@H](CC(C)C)NC(=O)[C@H]([C@@H](C)O)NC(=O)[C@H](C)N(C)C(=O)[C@H](C(C)C)NC(=O)[C@H](C)NC(=O)C[C@@H](C(=O)N2CCCCC2)NC(=O)[C@H](CC(C)C)NC(=O)CN(C)C1=O` [DP-21] (AV[NMeA]TLF[NMeL]PFI[Sar]LD-Piperidide; lactam N-13), the microsomal CLint turned out to be 25 µL/min/mg.

The same data set, now with this note: human, microsomes, pH 7.4, CL NADPH(+).
The molecule `CC(C)C[C@@H]1NC(=O)[C@H](CC(C)C)N(C)C(=O)[C@H](C)N(C)C(=O)[C@H](C(C)C)NC(=O)[C@H](Cc2ccccc2)NC(=O)CNC(=O)[C@H]([C@@H](C)O)NC(=O)[C@H](CC(C)C)NC(=O)[C@@H]2CCCN2C(=O)[C@H](Cc2ccccc2)NC(=O)[C@H](C)NC(=O)C[C@@H](C(=O)N2CCCCC2)NC1=O` [DP-23] (AFPLTGFV[NMeA][NMeL]LD-Piperidide; lactam N-12) came in with a microsomal CLint at 1 uM of 105 µL/min/mg.
In turn, `CC[C@H](C)[C@@H]1NC(=O)[C@H](Cc2ccccc2)N(C)C(=O)[C@H](Cc2ccccc2)NC(=O)[C@H](CC(C)C)NC(=O)[C@H](CC(C)C)N(C)C(=O)[C@H](C)N(C)C(=O)[C@H](C(C)C)NC(=O)[C@H](C)NC(=O)C[C@@H](C(=O)N2CCCCC2)NC(=O)[C@H](CC(C)C)N(C)C(=O)[C@H]([C@@H](C)O)NC(=O)[C@@H]2CCCN2C1=O` [DP-25] (AV[NMeA][NMeL]LF[NMeF]IPT[NMeL]D-Piperidide; lactam N-12) showed a microsomal CLint at 1 uM of 24 µL/min/mg.
On the same count and under the same terms, to `CC[C@H](C)[C@H]1C(=O)N[C@@H](Cc2ccccc2)C(=O)N(C)[C@@H](Cc2ccccc2)C(=O)N[C@@H]([C@@H](C)O)C(=O)N2CCC[C@H]2C(=O)N[C@@H](CC(C)C)C(=O)N[C@H](C(=O)N2CCCCC2)CC(=O)N[C@@H](C)C(=O)NCC(=O)N(C)[C@@H](C(C)C)C(=O)N(C)[C@@H](CC(C)C)C(=O)N[C@@H](C)C(=O)N1C` [DP-26] (AG[NMeV][NMeL]A[NMeI]F[NMeF]TPLD-Piperidide; lactam N-12) belongs 62 µL/min/mg; to `CC[C@H](C)[C@@H]1NC(=O)[C@H](C)NC(=O)C[C@@H](C(=O)N2CCCCC2)NC(=O)[C@H](C(C)C)NC(=O)[C@H](Cc2ccccc2)N(C)C(=O)[C@H](CC(C)C)NC(=O)[C@H]([C@@H](C)O)NC(=O)[C@H](Cc2ccccc2)NC(=O)[C@H](C)NC(=O)CN(C)C(=O)[C@H](CC(C)C)NC1=O` [DP-28] (AIL[Sar]AFTL[NMeF]VD-Piperidide; lactam N-11), 113 µL/min/mg.
Consider `CC[C@H](C)[C@@H]1NC(=O)[C@H](CC(C)C)N(C)C(=O)CNC(=O)[C@H](C)NC(=O)C[C@@H](C(=O)N2CCCCC2)NC(=O)[C@@H]2CCCN2C(=O)[C@H](CC(C)C)NC(=O)[C@H](Cc2ccccc2)NC(=O)[C@H]([C@@H](C)O)NC(=O)[C@H](Cc2ccccc2)N(C)C(=O)[C@H](C)N(C)C1=O` [DP-30] (AG[NMeL]I[NMeA][NMeF]TFLPD-Piperidide; lactam N-11), for which the microsomal CLint at 1 uM stood at 63 µL/min/mg.
On the same count and under the same terms, to `CC[C@H](C)[C@H]1C(=O)N[C@@H](C)C(=O)N(C)[C@@H](Cc2ccccc2)C(=O)N[C@@H]([C@@H](C)O)C(=O)N(C)[C@@H](CC(C)C)C(=O)N[C@@H](Cc2ccccc2)C(=O)N(C)[C@@H](C(C)C)C(=O)N[C@H](C(=O)N2CCCCC2)CC(=O)N[C@@H](C)C(=O)NCC(=O)N(C)[C@@H](CC(C)C)C(=O)N1C` [DP-31] (AG[NMeL][NMeI]A[NMeF]T[NMeL]F[NMeV]D-Piperidide; lactam N-11) belongs 57 µL/min/mg; to `CC(C)C[C@@H]1NC(=O)[C@H](C)N(C)C(=O)[C@H](C(C)C)N(C)C(=O)[C@H](Cc2ccccc2)NC(=O)CN(C)C(=O)[C@H]([C@@H](C)O)NC(=O)[C@@H]2CCCN2C(=O)[C@H](CC(C)C)NC(=O)[C@H](C)NC(=O)C[C@@H](C(=O)N2CCCCC2)NC(=O)[C@H](CC(C)C)N(C)C1=O` [DP-32] (ALPT[Sar]F[NMeV][NMeA]L[NMeL]D-Piperidide; lactam N-11), 26 µL/min/mg; to `CC[C@H](C)[C@@H]1NC(=O)[C@H](Cc2ccccc2)N(C)C(=O)[C@H](Cc2ccccc2)NC(=O)[C@H](CC(C)C)N(C)C(=O)[C@H](CC(C)C)NC(=O)[C@H](C)NC(=O)C[C@@H](C(=O)N2CCCCC2)NC(=O)[C@H]([C@@H](C)O)NC(=O)[C@@H]2CCCN2C1=O` [DP-33] (AL[NMeL]F[NMeF]IPTD-Piperidide; lactam N-9), 202 µL/min/mg.
On the same count and under the same terms, to `CC[C@H](C)[C@@H]1NC(=O)[C@H](C)NC(=O)C[C@@H](C(=O)N2CCCCC2)NC(=O)[C@@H]2CCCN2C(=O)C(CC(C)C)NC(=O)[C@H](Cc2ccccc2)N(C)C(=O)[C@H]([C@@H](C)O)NC(=O)[C@H](Cc2ccccc2)N(C)C(=O)[C@H](C)N(C)C1=O` (stereo partly drawn) [DP-34] (AI[NMeA][NMeF]T[NMeF][ξL]PD-Piperidide; lactam N-9) belongs 102 µL/min/mg.
In the case of `CC[C@H](C)[C@H](NC(=O)[C@H](C)NC(=O)CNC(=O)[C@@H]1CC(=O)N[C@@H](C)C(=O)N[C@@H](CC(C)C)C(=O)N[C@@H]([C@@H](C)O)C(=O)N(C)[C@@H](CC(C)C)C(=O)N[C@@H](Cc2ccccc2)C(=O)N2CCC[C@H]2C(=O)N[C@@H](C(C)C)C(=O)N[C@@H](Cc2ccccc2)C(=O)N(C)[C@@H](CC(C)C)C(=O)N1)C(=O)N1CCCCC1` [DP-42] (ALT[NMeL]FPVF[NMeL]DGAI-Piperidide; lactam N-10), the microsomal CLint at 1 uM is 17 µL/min/mg.
Take `CC[C@H](C)[C@H](NC(=O)[C@H](CC(C)C)N(C)C(=O)[C@@H]1CC(=O)N[C@@H](C)C(=O)N[C@@H](Cc2ccccc2)C(=O)N2CCC[C@H]2C(=O)N[C@@H](CC(C)C)C(=O)N[C@@H]([C@@H](C)O)C(=O)N[C@@H](CC(C)C)C(=O)N[C@@H](Cc2ccccc2)C(=O)N(C)[C@@H](C(C)C)C(=O)N[C@@H](C)C(=O)N1)C(=O)N1CCCCC1` [DP-43] (AFPLTLF[NMeV]AD[NMeL]I-Piperidide; lactam N-10): the microsomal CLint at 1 uM was 44 µL/min/mg.
Same read-out and setting: to `CC[C@H](C)[C@H](NC(=O)[C@@H]1CCCN1C(=O)[C@@H](NC(=O)[C@@H]1CC(=O)N[C@@H](C)C(=O)N[C@@H](CC(C)C)C(=O)N(C)[C@@H](CC(C)C)C(=O)N[C@@H](C)C(=O)N[C@@H](CC(C)C)C(=O)N(C)[C@@H](Cc2ccccc2)C(=O)N[C@@H](Cc2ccccc2)C(=O)N1)[C@@H](C)O)C(=O)N1CCCCC1` [DP-45] (AL[NMeL]AL[NMeF]FDTPI-Piperidide; lactam N-8) belongs 129 µL/min/mg.
Same read-out and setting: the same measure for `CC[C@H](C)[C@H](NC(=O)[C@H](CC(C)C)N(C)C(=O)[C@@H](NC(=O)[C@@H]1CC(=O)N[C@@H](C)C(=O)N[C@@H](CC(C)C)C(=O)N[C@@H]([C@@H](C)O)C(=O)N(C)[C@@H](Cc2ccccc2)C(=O)N[C@@H](Cc2ccccc2)C(=O)N(C)[C@@H](C)C(=O)N1)C(C)C)C(=O)N1CCCCC1` [DP-46] (ALT[NMeF]F[NMeA]DV[NMeL]I-Piperidide; lactam N-7): 249 µL/min/mg.

Staying with this data set, now noted: microsomes, pH 7.4; human hepatic microsome, NADPH(+); read-out: CL NADPH(+).
Regarding `CC[C@H](C)[C@H]1C(=O)N[C@H](C(=O)N2CCCCC2)CC(=O)N[C@@H](C)C(=O)N[C@@H]([C@@H](C)O)C(=O)N(C)[C@@H](Cc2ccccc2)C(=O)N[C@@H](CC(C)C)C(=O)N2CCC[C@H]2C(=O)N[C@@H](C(C)C)C(=O)N[C@@H](Cc2ccccc2)C(=O)N(C)CC(=O)N[C@@H](CC(C)C)C(=O)N[C@@H](C)C(=O)N1C` [DP-24] (AT[NMeF]LPVF[Sar]LA[NMeI]D-Piperidide; lactam N-12), the microsomal CLint at 1 uM was 52 µL/min/mg.
Still for that read-out and setting: the same measure for `CC[C@H](C)[C@H]1C(=O)N[C@H](C(=O)N2CCCCC2)CC(=O)N[C@@H](C)C(=O)N[C@@H]([C@@H](C)O)C(=O)N(C)[C@@H](Cc2ccccc2)C(=O)N[C@@H](CC(C)C)C(=O)N2CCC[C@H]2C(=O)N(C)[C@@H](C(C)C)C(=O)N[C@@H](Cc2ccccc2)C(=O)N(C)CC(=O)N(C)[C@@H](CC(C)C)C(=O)N[C@@H](C)C(=O)N1C` [DP-27] (AT[NMeF]LP[NMeV]F[Sar][NMeL]A[NMeI]D-Piperidide; lactam N-12): 31 µL/min/mg.
Still for that read-out and setting: to `CC(C)C[C@@H]1NC(=O)[C@H](C)NC(=O)C[C@@H](C(=O)N2CCCCC2)NC(=O)[C@H](CC(C)C)N(C)C(=O)[C@H](C)NC(=O)[C@H](CC(C)C)NC(=O)[C@H](C(C)C)NC(=O)CNC(=O)[C@H](Cc2ccccc2)NC(=O)[C@H](C)N(C)C(=O)[C@H](CC(C)C)NC(=O)[C@H]([C@@H](C)O)NC(=O)[C@H](Cc2ccccc2)NC1=O` [DP-82] (ALFTL[NMeA]FGVLA[NMeL]D-Piperidide; lactam N-13) belongs 16 µL/min/mg; to `CC[C@H](C)[C@@H]1NC(=O)[C@H](Cc2ccccc2)N(C)C(=O)[C@H](Cc2ccccc2)NC(=O)[C@H](CC(C)C)N(C)C(=O)[C@H](C(C)C)NC(=O)[C@H](CC(C)C)NC(=O)[C@H](C)N(C)C(=O)CNC(=O)[C@H](C)NC(=O)C[C@@H](C(=O)N2CCCCC2)NC(=O)[C@H]([C@@H](C)O)NC(=O)[C@H](CC(C)C)NC(=O)[C@H](C)N(C)C1=O` [DP-83] (AG[NMeA]LV[NMeL]F[NMeF]I[NMeA]LTD-Piperidide; lactam N-13), 39 µL/min/mg; to `CC[C@H](C)[C@@H]1NC(=O)[C@H](C)N(C)C(=O)[C@H](Cc2ccccc2)NC(=O)[C@H](Cc2ccccc2)NC(=O)[C@H](CC(C)C)NC(=O)[C@H](C(C)C)N(C)C(=O)[C@H](CC(C)C)NC(=O)[C@H](C)NC(=O)[C@H](C)NC(=O)C[C@@H](C(=O)N2CCCCC2)NC(=O)CNC(=O)[C@H]([C@@H](C)O)NC1=O` [DP-84] (AAL[NMeV]LFF[NMeA]ITGD-Piperidide; lactam N-12), 21 µL/min/mg.
The same measure, in the same setting: to `CC[C@H](C)[C@@H]1NC(=O)[C@H](Cc2ccccc2)N(C)C(=O)[C@H](Cc2ccccc2)NC(=O)[C@H](C(C)C)N(C)C(=O)[C@H](CC(C)C)N(C)C(=O)[C@H](CC(C)C)NC(=O)[C@H](C)NC(=O)C[C@@H](C(=O)N2CCCCC2)NC(=O)[C@H]([C@@H](C)O)NC(=O)CNC(=O)[C@H](C)N(C)C1=O` [DP-85] (AL[NMeL][NMeV]F[NMeF]I[NMeA]GTD-Piperidide; lactam N-11) belongs 58 µL/min/mg; to `CC[C@H](C)[C@@H]1NC(=O)[C@H](Cc2ccccc2)N(C)C(=O)[C@H](Cc2ccccc2)NC(=O)[C@H](CC(C)C)N(C)C(=O)[C@H](CC(C)C)NC(=O)[C@H](C)NC(=O)C[C@@H](C(=O)N2CCCCC2)NC(=O)[C@H]([C@@H](C)O)NC(=O)[C@H](C)N(C)C1=O` [DP-86] (AL[NMeL]F[NMeF]I[NMeA]TD-Piperidide; lactam N-9), 237 µL/min/mg.
